Assay results taken from patent publication US9161945B2, “4-isopropyl-6-methoxyphenyl glucitol compound” (TAISHO PHARMACEUTICAL CO., LTD., priority 2010, dated 2015).
Marks after values point to notes of the source that are not given here.

Columns and labels:
human SGLT2 = human SGLT2 (Homo sapiens (Human), UniProt P31639); experiment: Inhibition test of sodium-dependent glucose uptake in CHO-K1 cells stably expressing human SGLT2; type: cell-based; details: [14C]methyl α-D-glucopyranoside uptake, 37° C., 60 minutes, read-out: IC50 for hSGLT2
Method: (2) Creation of CHO-K1 Cells Stably Expressing Human SGLT2
(§1) A plasmid vector expressing human SGLT2 protein was transfected into CHO-K1 cells using Lipofectamine LTX (Invitrogen). The cells were cultured in the presence of 1000 μg/mL geneticin to select resistant strains, followed by screening in the system shown below using sugar uptake capacity as an indicator to obtain SGLT2-expressing cells.
(§2) (3) Inhibition Test of Sodium-Dependent Glucose Uptake in Stable Expression Cells
(§3) The stably expressing cells prepared above were used in the following test.
(§4) Pretreatment buffer (140 mM choline chloride, 2 mM KCl, 1 mM CaCl2, 1 mM MgCl2, 10 mM HEPES/5 mM Tris, pH 7.4) was added to the stably expressing cells, followed by incubation for 20 minutes. The pretreatment buffer was removed and replaced by uptake buffer containing a test compound (1 mM methyl α-D-glucopyranoside (containing [^14C]methyl α-D-glucopyranoside), 145 mM NaCl, 2 mM KCl, 1 mM CaCl2, 1 mM MgCl2, 10 mM HEPES/5 mM Tris, pH 7.4). Uptake reaction was performed at 37° C. for 30 minutes (SGLT1) or 60 minutes (SGLT2). […] A liquid scintillator (Perkin Elmer) was added and mixed well, followed by measurement of radioactivity using a β-ray analyzer. […]

human SGLT1 = human SGLT1 (Homo sapiens (Human), UniProt P13866); experiment: Inhibition test of sodium-dependent glucose uptake in CHO-K1 cells stably expressing human SGLT1; type: cell-based; details: [14C]methyl α-D-glucopyranoside uptake, 37° C., 30 minutes, read-out: IC50 for hSGLT1
Method: (1) Creation of CHO-K1 Cells Stably Expressing Human SGLT1
as §1, with “SGLT1” for “SGLT2”, “2000” for “LTX”, “500” for “1000”, “SGLT1-expressing” for “SGLT2-expressing”
as §2, §3, §4

[1] = Renal concentrations after repeated oral administration for 3 days; type: in vivo, SD/IGS rats
Method: (2) Renal Concentrations of the Compound (I) of the Present Invention After Repeated Oral Administration for 3 Days
SD/IGS rats at 7 weeks of age (male, non-fasting, Charles River Laboratories Japan Inc.) were orally administered once a day for 3 consecutive days with the compound (I) (3 mg/kg) prepared in a 0.5% aqueous solution of CMC. At 48 hours after the final drug administration, the rats were exsanguinated via the postcaval vein under isoflurane anesthesia, and their kidneys were excised after they were confirmed to be euthanized. After the tissue surface was washed with physiological saline, each tissue was measured for its weight and homogenized in 4 volumes of purified water under ice cooling. The drug concentration in each homogenate was determined in the same manner as shown in Test Example 2(1) by LC-MS/MS using compound 11 as an internal standard substance.

[2] = system: streptozotocin diabetic model rats; experiment: Oral glucose tolerance test (hypoglycemic effect) in streptozotocin diabetic model rats; type: in vivo, SD/IGS rats; details: for STZ rats OGTT % inhibition ΔAUC0-1h (mg/dl) @ 1 mg/kg/po: STZ-induced diabetic rats versus vehicle control, oral dose 1 mg/kg, glucose 2 g/kg
Method: (§5) Test Example 3 Confirmation study of hypoglycemic effect in streptozotocin diabetic model rats
(§6) (1) Preparation of Diabetic Model Rats
(§7) SD/IGS rats at 7 weeks of age (male, Charles River Laboratories Japan Inc.) were fasted for about 16 hours and then injected with 50 mg/kg streptozotocin (STZ) via the caudal vein under ether anesthesia to prepare diabetic model rats. Similarly, another group of SD/IGS rats at 7 weeks of age was injected with 1.25 mmol/L citric acid in physiological saline (1 mL/kg) via the caudal vein under ether anesthesia to prepare normal control rats. At one week after injection of STZ or 1.25 mmol/L citric acid in physiological saline, the rats (8 weeks old) were provided for an oral glucose tolerance test.
(§8) (2) Oral Glucose Tolerance Test
(§9) […] At 5 minutes after drug administration, a glucose solution (2 g/kg) was orally administered to each rat, and the blood was collected at a total of 5 time points: before drug administration (0 time), and at 0.25, 0.5, 1 and 2 hours after the oral administration.
(§10) Blood was collected from the caudal veins of the rats under ether anesthesia with the use of a heparin-coated blood collecting tube and centrifuged, whereafter blood plasma was separated. Plasma glucose concentrations were quantified by measurement with a Glucose CII-Test Wako (Wako Pure Chemical Industries, Ltd., Japan). To determine the intensity of hypoglycemic effect, the blood glucose level before drug administration was subtracted from each blood glucose level measured until one hour after oral administration in each drug group, and the resulting values were analyzed by the trapezoidal method to calculate an increment in the area under the curve for glucose (ΔAUC), which was expressed as a decrease relative to ΔAUC of the control group.

[3] = Renal concentrations until one week after single oral administration; type: in vivo, SD/IGS rats; details: male Sprague-Dawley rats
Method: (1) Changes in Renal Concentrations of Compounds 4, 10, 11 and 33 Disclosed in WO2007/136116 Until One Week After Oral Administration
SD/IGS rats at 7 weeks of age (male, non-fasting, Charles River Laboratories Japan Inc.) were orally administered with compound 4, 10 or 33 (1 mg/kg each) or compound 11 (0.3 mg/kg) prepared in a 0.5% aqueous solution of CMC. At 24, 72 and 168 hours after drug administration, the rats were exsanguinated via the postcaval vein under ether anesthesia, and their kidneys were excised after they were confirmed to be euthanized. After the tissue surface was washed with physiological saline, each tissue was measured for its weight and homogenized in 4 volumes of purified water under ice cooling. To each homogenate, an acetonitrile/methanol solution containing an internal standard substance was added to remove proteins, and the supernatant was then subjected to LC-MS/MS (Applied Biosystems API3000). Drug-derived ions generated by electrospray ionization in positive ion mode were detected by selective reaction monitoring. The peak area of the resulting extracted ion chromatogram was analyzed by the internal standard method to calculate the drug concentration in the homogenate.
As the internal standard material for compounds 10 and 33, (1S)-1,5-anhydro-1-[5-(4-ethoxybenzyl)-2-methoxy-4-methylphenyl]-1-thio-D-glucitol,ethyl-D5 was used. As the internal standard materials for compounds 4 and 11, compound 11 and deuterium-labeled compound 11 (trishydroxymethyl-D6; —C(CD2OH)3), respectively, were used.

[4] = Oral glucose tolerance test (hypoglycemic effect) in streptozotocin diabetic model rats; type: in vivo, SD/IGS rats; details: OGTT using Sprague-Dawley rats, not STZ rats; oral dose 1 mg/kg
Method: as §5, §6, §7, §8, §9, §10

Sequence of human SGLT2 (P31639 whole entry): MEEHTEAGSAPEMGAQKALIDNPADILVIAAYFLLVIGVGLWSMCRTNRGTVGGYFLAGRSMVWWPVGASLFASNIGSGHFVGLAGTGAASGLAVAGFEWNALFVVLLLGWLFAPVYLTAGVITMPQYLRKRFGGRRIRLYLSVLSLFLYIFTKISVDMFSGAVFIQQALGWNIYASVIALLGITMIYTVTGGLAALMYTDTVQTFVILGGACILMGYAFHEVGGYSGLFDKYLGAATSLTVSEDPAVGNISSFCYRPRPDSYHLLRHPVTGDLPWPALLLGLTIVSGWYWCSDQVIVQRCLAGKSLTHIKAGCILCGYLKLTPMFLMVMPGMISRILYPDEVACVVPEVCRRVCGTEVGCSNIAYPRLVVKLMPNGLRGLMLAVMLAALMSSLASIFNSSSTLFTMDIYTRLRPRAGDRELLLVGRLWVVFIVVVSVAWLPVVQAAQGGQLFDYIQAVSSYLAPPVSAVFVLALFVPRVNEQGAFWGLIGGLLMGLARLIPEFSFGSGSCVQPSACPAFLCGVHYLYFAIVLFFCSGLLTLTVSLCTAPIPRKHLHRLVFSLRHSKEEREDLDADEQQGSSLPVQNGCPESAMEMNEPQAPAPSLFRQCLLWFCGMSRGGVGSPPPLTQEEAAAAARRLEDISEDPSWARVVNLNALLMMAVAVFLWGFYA
Sequence of human SGLT1 (P13866 whole entry): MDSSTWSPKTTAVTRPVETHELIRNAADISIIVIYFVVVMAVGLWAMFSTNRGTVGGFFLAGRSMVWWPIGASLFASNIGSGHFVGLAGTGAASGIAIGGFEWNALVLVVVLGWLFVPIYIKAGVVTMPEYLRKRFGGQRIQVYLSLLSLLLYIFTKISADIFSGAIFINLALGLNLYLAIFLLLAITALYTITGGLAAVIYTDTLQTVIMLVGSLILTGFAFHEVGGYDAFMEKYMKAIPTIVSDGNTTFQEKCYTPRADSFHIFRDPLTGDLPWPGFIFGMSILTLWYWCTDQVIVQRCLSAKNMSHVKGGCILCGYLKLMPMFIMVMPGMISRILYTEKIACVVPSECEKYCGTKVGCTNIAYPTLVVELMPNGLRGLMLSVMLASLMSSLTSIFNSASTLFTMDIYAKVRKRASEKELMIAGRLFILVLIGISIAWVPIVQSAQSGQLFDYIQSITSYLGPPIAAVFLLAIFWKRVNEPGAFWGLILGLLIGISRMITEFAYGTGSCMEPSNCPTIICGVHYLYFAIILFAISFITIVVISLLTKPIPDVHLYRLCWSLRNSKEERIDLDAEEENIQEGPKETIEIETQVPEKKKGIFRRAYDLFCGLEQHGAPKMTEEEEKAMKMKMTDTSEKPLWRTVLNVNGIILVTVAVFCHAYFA

| Structure (SMILES) | Concentration of compounds in kidney after single oral administration, After 1 day ([3]; 1 mg/kg po, 1 day (24 hours)) [ng/g] | Concentration of compounds in kidney after single oral administration, After 3 days ([3]; 1 mg/kg po, 3 days (72 hours)) [ng/g] | Concentration of compounds in kidney after single oral administration, After 7 days ([3]; 1 mg/kg po, 7 days (168 hours)) [ng/g] | STZ rats OGTT % inhibition ΔAUC0-1h (mg/dl) @ 1 mg/kg/po [2] [%] | also measured |
| --- | --- | --- | --- | --- | --- |
| COc1cc(C(C)C)c(Cc2ccc(/C=C/C(C)(C)C(=O)NC(C)(C)C(N)=O)cc2C)cc1[C@@H]1O[C@H](CO)[C@@H](O)[C@H](O)[C@H]1O [Compound (I)] | – | – | – | – | IC50 (human SGLT2): 554 nM; IC50 (human SGLT1): 65 nM; remaining in the kidney (in words) ([1]; 3 mg/kg for 3 consecutive days, at subsequent day 2): did not remain in the kidney; Concentration of compounds in kidney after 3 days continuous oral administration, After 2 days ([1]; 3 mg/kg po once a day for 3 days, male Sprague-Dawley rats, 48 hours after final administration, limit of detection 5 ng/g): ND^# (ND (not determined) means limit of detection (5 ng/g).); hypoglycemic action (in words) ([2]; glucose tolerance test, compound of the invention): potent hypoglycemic action |
| Cc1cc(O)c([C@@H]2O[C@H](CO)[C@@H](O)[C@H](O)[C@H]2O)cc1Cc1ccc(CCNC(=O)NC(CO)(CO)CO)cc1 [compound 11] | – | – | – | 68 | Concentration of compounds in kidney after single oral administration, After 1 day ([3]; 0.3 mg/kg po (footnote *), 1 day, mean ± S.D.): 63.5 ± 20.1* ng/g; Concentration of compounds in kidney after single oral administration, After 3 days ([3]; 0.3 mg/kg po (footnote *), 3 days, mean ± S.D.): 67.3 ± 3.15* ng/g; Concentration of compounds in kidney after single oral administration, After 7 days ([3]; 0.3 mg/kg po (footnote *), 7 days, mean ± S.D.): 48.7 ± 18.3* ng/g |
| Cc1cc(O)c([C@@H]2O[C@H](CO)[C@@H](O)[C@H](O)[C@H]2O)cc1Cc1ccc(CCNC(=O)NC2CCN(Cc3ccccc3)CC2)cc1 [compound 33] | 29.8 ± 6.79 | 25.5 ± 8.68 | 16.2 ± 3.11 | – | OGTT % inhibition ΔAUC0-1h (mg/dl) @ 1 mg/kg/po [4]: 81^# % |

Continued, in another order:

| Concentration of compounds in kidney after single oral administration, After 1 day ([3]; 1 mg/kg po, 1 day (24 hours)) [ng/g] | Concentration of compounds in kidney after single oral administration, After 3 days ([3]; 1 mg/kg po, 3 days (72 hours)) [ng/g] | Concentration of compounds in kidney after single oral administration, After 7 days ([3]; 1 mg/kg po, 7 days (168 hours)) [ng/g] | Structure (SMILES) | STZ rats OGTT % inhibition ΔAUC0-1h (mg/dl) @ 1 mg/kg/po [2] [%] | also measured |
| --- | --- | --- | --- | --- | --- |
| 167 ± 36.3 | 124 ± 12.2 | 53.8 ± 7.6 | Cc1cc(O)c([C@@H]2O[C@H](CO)[C@@H](O)[C@H](O)[C@H]2O)cc1Cc1ccc(CCNC(=O)NC(C)(C)CO)cc1 [compound 10] | 69 | – |
| 68.4 ± 7.49 | 85.5 ± 23.1 | 76.3 ± 15.5 | Cc1cc(O)c([C@@H]2O[C@H](CO)[C@@H](O)[C@H](O)[C@H]2O)cc1Cc1ccc(CCCC(=O)NC(C)(C)C(N)=O)cc1 [compound 4] | 51 | – |
